According to patent US20240415914A1, “Water Dispersible Cannabinoid Compositions” (priority 2021, published 2024):

Assay: Stability of cannabinoid and Vitamin E components of Beverage 1 (AB White) stored at 8° C. and 21-25° C., LCMSMS over 570 days
Type: physicochemical
Settings: for Stability in AB White, 8° C. (content by LCMSMS): beverage stored at 8° C.; for Stability in AB White, 21-25° C. (content by LCMSMS): beverage stored at 21-25° C.
Method: The LCMSMS was calibrated for 0-1000 ng/ml cannabinoids with the same resin material used in the preparation of the concentrates. At each time period, 100 ml of beverage was diluted with 10 ml of methanol and injected into the LCMSMS for analysis.

For `C=C(C)[C@@H]1CCC(C)=C[C@H]1c1c(O)cc(CCC)cc1O` [CBDV, cannabidivarin], the “Stability in AB White, 8° C. (content by LCMSMS)” value (day 0) was 0.150 µg/mL, the “Stability in AB White, 8° C. (content by LCMSMS)” value (day 1) was 0.146 µg/mL and the “Stability in AB White, 8° C. (content by LCMSMS)” value (day 2) was 0.147 µg/mL. The “Stability in AB White, 8° C. (content by LCMSMS)” value (day 3) was 0.146 µg/mL, the “Stability in AB White, 8° C. (content by LCMSMS)” value (day 5) was 0.147 µg/mL and the “Stability in AB White, 8° C. (content by LCMSMS)” value (day 8) was 0.148 µg/mL. For the same compound, the “Stability in AB White, 8° C. (content by LCMSMS)” value (day 9) was 0.146 µg/mL, the “Stability in AB White, 8° C. (content by LCMSMS)” value (day 10) was 0.148 µg/mL and the “Stability in AB White, 8° C. (content by LCMSMS)” value (day 11) was 0.150 µg/mL. For the same compound, the “Stability in AB White, 8° C. (content by LCMSMS)” value (day 12) was 0.150 µg/mL, the “Stability in AB White, 8° C. (content by LCMSMS)” value (day 15) was 0.150 µg/mL and the “Stability in AB White, 8° C. (content by LCMSMS)” value (day 16) was 0.148 µg/mL. For the same compound, the “Stability in AB White, 8° C. (content by LCMSMS)” value (day 17) was 0.146 µg/mL, the “Stability in AB White, 8° C. (content by LCMSMS)” value (day 18) was 0.146 µg/mL and the “Stability in AB White, 8° C. (content by LCMSMS)” value (day 19) was 0.149 µg/mL. For the same compound, the “Stability in AB White, 8° C. (content by LCMSMS)” value (day 22) was 0.149 µg/mL, the “Stability in AB White, 8° C. (content by LCMSMS)” value (day 23) was 0.149 µg/mL and the “Stability in AB White, 8° C. (content by LCMSMS)” value (day 24) was 0.147 µg/mL. The “Stability in AB White, 8° C. (content by LCMSMS)” value (day 25) was 0.149 µg/mL, the “Stability in AB White, 8° C. (content by LCMSMS)” value (day 26) was 0.152 µg/mL and the “Stability in AB White, 8° C. (content by LCMSMS)” value (day 29) was 0.151 µg/mL. The “Stability in AB White, 8° C. (content by LCMSMS)” value (day 30) was 0.148 µg/mL, the “Stability in AB White, 8° C. (content by LCMSMS)” value (day 60) was 0.143 µg/mL and the “Stability in AB White, 8° C. (content by LCMSMS)” value (day 90) was 0.146 µg/mL. The “Stability in AB White, 8° C. (content by LCMSMS)” value (day 120) was 0.144 µg/mL, the “Stability in AB White, 8° C. (content by LCMSMS)” value (day 150) was 0.150 µg/mL and the “Stability in AB White, 8° C. (content by LCMSMS)” value (day 180) was 0.150 µg/mL. For the same compound, the “Stability in AB White, 8° C. (content by LCMSMS)” value (day 210) was 0.147 µg/mL, the “Stability in AB White, 8° C. (content by LCMSMS)” value (day 240) was 0.145 µg/mL and the “Stability in AB White, 8° C. (content by LCMSMS)” value (day 270) was 0.143 µg/mL. For the same compound, the “Stability in AB White, 8° C. (content by LCMSMS)” value (day 300) was 0.143 µg/mL, the “Stability in AB White, 8° C. (content by LCMSMS)” value (day 330) was 0.146 µg/mL and the “Stability in AB White, 8° C. (content by LCMSMS)” value (day 360) was 0.145 µg/mL. For the same compound, the “Stability in AB White, 8° C. (content by LCMSMS)” value (day 390) was 0.143 µg/mL, the “Stability in AB White, 8° C. (content by LCMSMS)” value (day 420) was 0.144 µg/mL and the “Stability in AB White, 8° C. (content by LCMSMS)” value (day 450) was 0.145 µg/mL. The “Stability in AB White, 8° C. (content by LCMSMS)” value (day 480) was 0.143 µg/mL, the “Stability in AB White, 8° C. (content by LCMSMS)” value (day 510) was 0.138 µg/mL and the “Stability in AB White, 8° C. (content by LCMSMS)” value (day 540) was 0.139 µg/mL. For the same compound, the “Stability in AB White, 8° C. (content by LCMSMS)” value (day 570) was 0.138 µg/mL, the “Stability in AB White, 21-25° C. (content by LCMSMS)” value (day 0) was 0.150 µg/mL and the “Stability in AB White, 21-25° C. (content by LCMSMS)” value (day 1) was 0.149 µg/mL. The “Stability in AB White, 21-25° C. (content by LCMSMS)” value (day 2) was 0.148 µg/mL, the “Stability in AB White, 21-25° C. (content by LCMSMS)” value (day 3) was 0.149 µg/mL and the “Stability in AB White, 21-25° C. (content by LCMSMS)” value (day 5) was 0.144 µg/mL. For the same compound, the “Stability in AB White, 21-25° C. (content by LCMSMS)” value (day 8) was 0.145 µg/mL, the “Stability in AB White, 21-25° C. (content by LCMSMS)” value (day 9) was 0.148 µg/mL and the “Stability in AB White, 21-25° C. (content by LCMSMS)” value (day 10) was 0.147 µg/mL. For the same compound, the “Stability in AB White, 21-25° C. (content by LCMSMS)” value (day 11) was 0.150 µg/mL, the “Stability in AB White, 21-25° C. (content by LCMSMS)” value (day 12) was 0.152 µg/mL and the “Stability in AB White, 21-25° C. (content by LCMSMS)” value (day 15) was 0.151 µg/mL. For the same compound, the “Stability in AB White, 21-25° C. (content by LCMSMS)” value (day 16) was 0.145 µg/mL, the “Stability in AB White, 21-25° C. (content by LCMSMS)” value (day 17) was 0.150 µg/mL and the “Stability in AB White, 21-25° C. (content by LCMSMS)” value (day 18) was 0.151 µg/mL. The “Stability in AB White, 21-25° C. (content by LCMSMS)” value (day 19) was 0.148 µg/mL, the “Stability in AB White, 21-25° C. (content by LCMSMS)” value (day 22) was 0.148 µg/mL and the “Stability in AB White, 21-25° C. (content by LCMSMS)” value (day 23) was 0.148 µg/mL. The “Stability in AB White, 21-25° C. (content by LCMSMS)” value (day 24) was 0.145 µg/mL, the “Stability in AB White, 21-25° C. (content by LCMSMS)” value (day 25) was 0.145 µg/mL and the “Stability in AB White, 21-25° C. (content by LCMSMS)” value (day 26) was 0.149 µg/mL. The “Stability in AB White, 21-25° C. (content by LCMSMS)” value (day 29) was 0.147 µg/mL, the “Stability in AB White, 21-25° C. (content by LCMSMS)” value (day 30) was 0.151 µg/mL and the “Stability in AB White, 21-25° C. (content by LCMSMS)” value (day 60) was 0.149 µg/mL. The “Stability in AB White, 21-25° C. (content by LCMSMS)” value (day 90) was 0.143 µg/mL, the “Stability in AB White, 21-25° C. (content by LCMSMS)” value (day 120) was 0.141 µg/mL and the “Stability in AB White, 21-25° C. (content by LCMSMS)” value (day 150) was 0.146 µg/mL. For the same compound, the “Stability in AB White, 21-25° C. (content by LCMSMS)” value (day 180) was 0.141 µg/mL, the “Stability in AB White, 21-25° C. (content by LCMSMS)” value (day 210) was 0.142 µg/mL and the “Stability in AB White, 21-25° C. (content by LCMSMS)” value (day 240) was 0.145 µg/mL. For the same compound, the “Stability in AB White, 21-25° C. (content by LCMSMS)” value (day 270) was 0.148 µg/mL, the “Stability in AB White, 21-25° C. (content by LCMSMS)” value (day 300) was 0.142 µg/mL and the “Stability in AB White, 21-25° C. (content by LCMSMS)” value (day 330) was 0.144 µg/mL. For the same compound, the “Stability in AB White, 21-25° C. (content by LCMSMS)” value (day 360) was 0.146 µg/mL, the “Stability in AB White, 21-25° C. (content by LCMSMS)” value (day 390) was 0.146 µg/mL and the “Stability in AB White, 21-25° C. (content by LCMSMS)” value (day 420) was 0.143 µg/mL. The “Stability in AB White, 21-25° C. (content by LCMSMS)” value (day 450) was 0.144 µg/mL, the “Stability in AB White, 21-25° C. (content by LCMSMS)” value (day 480) was 0.143 µg/mL and the “Stability in AB White, 21-25° C. (content by LCMSMS)” value (day 510) was 0.139 µg/mL. The “Stability in AB White, 21-25° C. (content by LCMSMS)” value (day 540) was 0.140 µg/mL and the “Stability in AB White, 21-25° C. (content by LCMSMS)” value (day 570) was 0.138 µg/mL.
